Data published in publication PMC4844702, “Selective inhibition of the kinase DYRK1A by targeting its folding process” (Nature Communications, 2016).

What was measured:
Assay in all cases: Kinase panel (Carna)
Assay type in all cases: biochemical
EPHA2 = molecular target: T1, EPHA2 (Homo sapiens, UniProt P29317)
T1 construct: purchased Carna Biosciences

MSK2 = molecular target: T2, MSK2 (Homo sapiens, UniProt O75676)
T2 construct: purchased Carna Biosciences
From the text: (§1) Detailed information on the assay conditions is available on the website of Carna Biosciences (http://www.carnabio.com).

p38β = molecular target: T3, p38β (Homo sapiens, UniProt Q15759)
T3 construct: purchased Carna Biosciences
From the text: as §1

BRSK1 = molecular target: T4, BRSK1 (Homo sapiens, UniProt Q8TDC3)
T4 construct: purchased Carna Biosciences
From the text: as §1

BMX = molecular target: T5, BMX (Homo sapiens, UniProt P51813)
T5 construct: purchased Carna Biosciences
From the text: as §1

CaMK4 = molecular target: T6, CaMK4 (Homo sapiens, UniProt Q16566)
T6 construct: purchased Carna Biosciences

CDK7/CycH/MAT1 = molecular target: T7, CDK7/CycH/MAT1 (Homo sapiens, UniProt P50613)
T7 construct: purchased Carna Biosciences
From the text: as §1

PAK1 = molecular target: T8, PAK1 (Homo sapiens, UniProt Q13153)
T8 construct: purchased Carna Biosciences
From the text: as §1

IKKβ = molecular target: T9, IKKβ (Homo sapiens, UniProt O14920)
T9 construct: purchased Carna Biosciences
From the text: as §1

TYK2 = molecular target: T10, TYK2 (Homo sapiens, UniProt P29597)
T10 construct: purchased Carna Biosciences
From the text: as §1

LATS2 = molecular target: T11, LATS2 (Homo sapiens, UniProt Q9NRM7)
T11 construct: purchased Carna Biosciences

CK1γ3 = molecular target: T12, CK1γ3 (Homo sapiens, UniProt Q9Y6M4)
T12 construct: purchased Carna Biosciences

PIK3CA/PIK3R1 = molecular target: T13, PIK3CA/PIK3R1 (Homo sapiens, UniProt P42336)
T13 construct: purchased Carna Biosciences
From the text: as §1

PKCβ1 = molecular target: T14, PKCβ1 (Homo sapiens, UniProt P05771)
T14 construct: purchased Carna Biosciences
From the text: as §1

PKD3 = molecular target: T15, PKD3 (Homo sapiens, UniProt O94806)
T15 construct: purchased Carna Biosciences

SPHK2 = molecular target: T16, SPHK2 (Homo sapiens, UniProt Q9NRA0)
T16 construct: purchased Carna Biosciences
From the text: as §1

CRIK = molecular target: T17, CRIK (Homo sapiens, UniProt O14578)
T17 construct: purchased Carna Biosciences

CSK = molecular target: T18, CSK (Homo sapiens, UniProt P41240)
T18 construct: purchased Carna Biosciences
From the text: as §1

CaMK1α = molecular target: T19, CaMK1α (Homo sapiens, UniProt Q14012)
T19 construct: purchased Carna Biosciences
From the text: as §1

ZAP70 = molecular target: T20, ZAP70 (Homo sapiens, UniProt P43403)
T20 construct: purchased Carna Biosciences
From the text: as §1

NEK9 = molecular target: T21, NEK9 (Homo sapiens, UniProt Q8TD19)
T21 construct: purchased Carna Biosciences

PKCη = molecular target: T22, PKCη (Homo sapiens, UniProt P24723)
T22 construct: purchased Carna Biosciences
From the text: as §1

SYK = molecular target: T23, SYK (Homo sapiens, UniProt P43405)
T23 construct: purchased Carna Biosciences
From the text: as §1

Erk2 = molecular target: T24, Erk2 (Homo sapiens, UniProt P28482)
T24 construct: purchased Carna Biosciences

PAK3 = molecular target: T25, PAK3 (Homo sapiens, UniProt O75914)
T25 construct: purchased Carna Biosciences
From the text: as §1

MAPKAPK3 = molecular target: T26, MAPKAPK3 (Homo sapiens, UniProt Q16644)
T26 construct: purchased Carna Biosciences

FER = molecular target: T27, FER (Homo sapiens, UniProt P16591)
T27 construct: purchased Carna Biosciences
From the text: as §1

TXK = molecular target: T28, TXK (Homo sapiens, UniProt P42681)
T28 construct: purchased Carna Biosciences
From the text: as §1

TEC = molecular target: T29, TEC (Homo sapiens, UniProt P42680)
T29 construct: purchased Carna Biosciences
From the text: as §1

RET = molecular target: T30, RET (Homo sapiens, UniProt P07949)
T30 construct: purchased Carna Biosciences
From the text: as §1

PDHK2 = molecular target: T31, PDHK2 (Homo sapiens, UniProt Q15119)
T31 construct: purchased Carna Biosciences
From the text: as §1

PIM3 = molecular target: T32, PIM3 (Homo sapiens, UniProt Q86V86); conditions: 10 µM FINDY
T32 construct: purchased Carna Biosciences

SRPK2 = molecular target: T33, SRPK2 (Homo sapiens, UniProt P78362)
T33 construct: purchased Carna Biosciences
From the text: as §1

ROS = molecular target: T34, ROS (Homo sapiens, UniProt P08922)
T34 construct: purchased Carna Biosciences
From the text: as §1

EPHB2 = molecular target: T35, EPHB2 (Homo sapiens, UniProt P29323)
T35 construct: purchased Carna Biosciences
From the text: as §1

MAP3K1_Cascade = molecular target: T36, MAP3K1_Cascade (Homo sapiens, UniProt Q13233)
T36 construct: purchased Carna Biosciences
From the text: as §1

PLK2 = molecular target: T37, PLK2 (Homo sapiens, UniProt Q9NYY3)
T37 construct: purchased Carna Biosciences

ABL = molecular target: T38, ABL (Homo sapiens, UniProt P00519)
T38 construct: purchased Carna Biosciences
From the text: as §1

TAOK2 = molecular target: T39, TAOK2 (Homo sapiens, UniProt Q9UL54)
T39 construct: purchased Carna Biosciences
From the text: as §1

PGK = molecular target: T40, PGK (Homo sapiens, UniProt Q13976)
T40 construct: purchased Carna Biosciences
From the text: as §1

SIK = molecular target: T41, SIK (Homo sapiens, UniProt P57059)
T41 construct: purchased Carna Biosciences

MARK1 = molecular target: T42, MARK1 (Homo sapiens, UniProt Q9P0L2)
T42 construct: purchased Carna Biosciences
From the text: as §1

FMS = molecular target: T43, FMS (Homo sapiens, UniProt P07333)
T43 construct: purchased Carna Biosciences
From the text: as §1

CHK1 = molecular target: T44, CHK1 (Homo sapiens, UniProt O14757)
T44 construct: purchased Carna Biosciences
From the text: as §1

T29 sequence (P42680 whole entry): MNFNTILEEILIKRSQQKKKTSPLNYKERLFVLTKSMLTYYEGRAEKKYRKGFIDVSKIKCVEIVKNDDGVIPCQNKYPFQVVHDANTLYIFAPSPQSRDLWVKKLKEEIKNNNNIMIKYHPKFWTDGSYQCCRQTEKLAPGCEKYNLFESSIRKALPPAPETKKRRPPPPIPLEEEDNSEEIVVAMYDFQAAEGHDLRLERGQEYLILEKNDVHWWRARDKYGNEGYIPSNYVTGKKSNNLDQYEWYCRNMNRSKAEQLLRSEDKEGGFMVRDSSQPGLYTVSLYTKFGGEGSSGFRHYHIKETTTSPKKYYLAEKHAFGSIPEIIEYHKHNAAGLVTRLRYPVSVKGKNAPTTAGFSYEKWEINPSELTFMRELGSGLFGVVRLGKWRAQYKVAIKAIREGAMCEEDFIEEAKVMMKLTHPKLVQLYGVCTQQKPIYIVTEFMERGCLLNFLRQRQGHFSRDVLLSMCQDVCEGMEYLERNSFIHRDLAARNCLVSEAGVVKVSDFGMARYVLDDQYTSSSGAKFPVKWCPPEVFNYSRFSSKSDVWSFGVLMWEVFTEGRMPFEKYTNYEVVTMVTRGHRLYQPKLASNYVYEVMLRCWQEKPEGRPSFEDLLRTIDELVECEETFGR
T27 sequence (P16591 whole entry): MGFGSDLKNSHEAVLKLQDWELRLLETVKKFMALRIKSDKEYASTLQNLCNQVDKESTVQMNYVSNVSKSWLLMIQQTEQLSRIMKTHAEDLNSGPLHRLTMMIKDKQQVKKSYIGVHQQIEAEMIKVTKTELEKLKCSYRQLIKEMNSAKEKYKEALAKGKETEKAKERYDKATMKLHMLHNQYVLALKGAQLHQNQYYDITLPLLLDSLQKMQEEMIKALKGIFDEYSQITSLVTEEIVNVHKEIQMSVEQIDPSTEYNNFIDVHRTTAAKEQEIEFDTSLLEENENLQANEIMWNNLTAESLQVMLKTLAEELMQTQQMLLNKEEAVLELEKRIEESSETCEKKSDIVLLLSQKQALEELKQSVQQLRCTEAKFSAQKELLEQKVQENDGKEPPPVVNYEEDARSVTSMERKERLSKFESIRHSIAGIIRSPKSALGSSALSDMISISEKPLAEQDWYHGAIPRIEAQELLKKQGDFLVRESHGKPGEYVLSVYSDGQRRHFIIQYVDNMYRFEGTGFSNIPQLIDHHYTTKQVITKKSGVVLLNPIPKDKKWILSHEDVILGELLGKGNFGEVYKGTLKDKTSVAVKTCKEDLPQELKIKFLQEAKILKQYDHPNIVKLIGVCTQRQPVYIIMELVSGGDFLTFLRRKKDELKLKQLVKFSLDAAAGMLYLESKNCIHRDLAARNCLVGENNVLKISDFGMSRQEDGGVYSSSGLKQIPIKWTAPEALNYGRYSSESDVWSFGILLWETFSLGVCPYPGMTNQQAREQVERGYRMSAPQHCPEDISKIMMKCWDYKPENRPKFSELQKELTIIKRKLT
T12 sequence (Q9Y6M4 whole entry): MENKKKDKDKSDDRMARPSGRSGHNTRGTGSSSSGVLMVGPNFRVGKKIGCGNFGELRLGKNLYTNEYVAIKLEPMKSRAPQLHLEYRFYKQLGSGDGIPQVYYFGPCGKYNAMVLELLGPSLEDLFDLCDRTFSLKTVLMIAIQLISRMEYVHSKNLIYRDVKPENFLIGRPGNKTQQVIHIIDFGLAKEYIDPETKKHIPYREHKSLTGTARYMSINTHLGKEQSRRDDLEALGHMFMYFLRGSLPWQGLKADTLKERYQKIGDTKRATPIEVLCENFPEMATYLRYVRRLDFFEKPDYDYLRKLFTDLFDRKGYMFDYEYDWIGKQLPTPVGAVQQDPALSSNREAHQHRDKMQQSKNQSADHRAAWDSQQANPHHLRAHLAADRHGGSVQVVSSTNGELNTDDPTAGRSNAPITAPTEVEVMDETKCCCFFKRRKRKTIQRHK
T36 sequence (Q13233 whole entry): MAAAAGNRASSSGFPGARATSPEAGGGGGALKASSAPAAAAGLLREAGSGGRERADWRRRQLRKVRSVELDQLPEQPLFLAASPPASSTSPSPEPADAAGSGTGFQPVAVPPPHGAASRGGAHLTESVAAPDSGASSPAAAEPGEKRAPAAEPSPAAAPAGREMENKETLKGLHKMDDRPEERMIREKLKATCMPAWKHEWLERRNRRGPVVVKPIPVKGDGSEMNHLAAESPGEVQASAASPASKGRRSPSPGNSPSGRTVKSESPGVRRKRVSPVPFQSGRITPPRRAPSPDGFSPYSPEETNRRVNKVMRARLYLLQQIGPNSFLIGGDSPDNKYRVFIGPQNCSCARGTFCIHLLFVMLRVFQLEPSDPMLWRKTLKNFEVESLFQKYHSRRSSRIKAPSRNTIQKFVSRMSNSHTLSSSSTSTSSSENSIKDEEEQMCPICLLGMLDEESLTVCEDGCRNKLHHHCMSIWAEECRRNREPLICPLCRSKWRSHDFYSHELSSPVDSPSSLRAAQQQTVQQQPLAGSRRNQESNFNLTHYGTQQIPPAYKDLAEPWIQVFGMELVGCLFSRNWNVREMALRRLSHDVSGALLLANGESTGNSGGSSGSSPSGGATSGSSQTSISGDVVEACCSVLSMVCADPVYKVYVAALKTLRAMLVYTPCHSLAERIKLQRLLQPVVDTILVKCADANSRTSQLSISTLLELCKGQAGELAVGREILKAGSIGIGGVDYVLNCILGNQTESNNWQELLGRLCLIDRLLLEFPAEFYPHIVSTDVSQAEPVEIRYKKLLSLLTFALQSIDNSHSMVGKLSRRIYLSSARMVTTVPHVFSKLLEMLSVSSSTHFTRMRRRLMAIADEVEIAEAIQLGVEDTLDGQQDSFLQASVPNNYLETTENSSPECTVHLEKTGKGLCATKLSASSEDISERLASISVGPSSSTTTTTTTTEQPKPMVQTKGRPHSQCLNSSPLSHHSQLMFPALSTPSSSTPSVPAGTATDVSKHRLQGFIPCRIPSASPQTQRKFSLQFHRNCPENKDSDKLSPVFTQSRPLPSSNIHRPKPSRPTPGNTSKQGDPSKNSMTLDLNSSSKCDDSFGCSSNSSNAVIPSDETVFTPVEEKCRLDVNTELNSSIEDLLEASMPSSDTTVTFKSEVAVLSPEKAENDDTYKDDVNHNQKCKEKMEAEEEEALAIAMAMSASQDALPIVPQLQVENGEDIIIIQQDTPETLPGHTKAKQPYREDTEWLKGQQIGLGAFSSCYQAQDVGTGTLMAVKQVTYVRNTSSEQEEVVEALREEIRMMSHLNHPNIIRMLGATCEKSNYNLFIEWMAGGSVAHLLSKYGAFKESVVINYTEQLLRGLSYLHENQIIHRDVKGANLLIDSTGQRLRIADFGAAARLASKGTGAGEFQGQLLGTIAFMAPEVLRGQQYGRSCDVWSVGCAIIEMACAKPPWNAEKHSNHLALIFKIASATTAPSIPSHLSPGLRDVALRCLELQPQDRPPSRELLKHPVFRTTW
T40 sequence (Q13976 whole entry): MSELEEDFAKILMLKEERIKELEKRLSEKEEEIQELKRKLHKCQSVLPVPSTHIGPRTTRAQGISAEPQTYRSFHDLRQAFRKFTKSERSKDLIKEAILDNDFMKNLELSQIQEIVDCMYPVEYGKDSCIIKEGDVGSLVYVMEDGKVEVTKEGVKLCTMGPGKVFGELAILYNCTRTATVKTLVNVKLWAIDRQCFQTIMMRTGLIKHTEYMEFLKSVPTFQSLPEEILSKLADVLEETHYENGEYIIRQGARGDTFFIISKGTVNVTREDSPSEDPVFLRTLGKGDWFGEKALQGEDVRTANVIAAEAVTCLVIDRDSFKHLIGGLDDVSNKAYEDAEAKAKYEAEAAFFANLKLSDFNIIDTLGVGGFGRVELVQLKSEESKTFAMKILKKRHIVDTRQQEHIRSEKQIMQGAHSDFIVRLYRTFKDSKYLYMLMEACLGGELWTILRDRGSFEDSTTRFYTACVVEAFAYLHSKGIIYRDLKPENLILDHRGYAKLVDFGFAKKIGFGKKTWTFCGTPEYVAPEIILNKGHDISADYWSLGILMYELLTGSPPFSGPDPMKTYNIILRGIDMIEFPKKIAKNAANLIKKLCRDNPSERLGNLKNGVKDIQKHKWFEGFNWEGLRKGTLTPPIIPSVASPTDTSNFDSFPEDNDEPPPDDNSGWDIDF
T6 sequence (Q16566 whole entry): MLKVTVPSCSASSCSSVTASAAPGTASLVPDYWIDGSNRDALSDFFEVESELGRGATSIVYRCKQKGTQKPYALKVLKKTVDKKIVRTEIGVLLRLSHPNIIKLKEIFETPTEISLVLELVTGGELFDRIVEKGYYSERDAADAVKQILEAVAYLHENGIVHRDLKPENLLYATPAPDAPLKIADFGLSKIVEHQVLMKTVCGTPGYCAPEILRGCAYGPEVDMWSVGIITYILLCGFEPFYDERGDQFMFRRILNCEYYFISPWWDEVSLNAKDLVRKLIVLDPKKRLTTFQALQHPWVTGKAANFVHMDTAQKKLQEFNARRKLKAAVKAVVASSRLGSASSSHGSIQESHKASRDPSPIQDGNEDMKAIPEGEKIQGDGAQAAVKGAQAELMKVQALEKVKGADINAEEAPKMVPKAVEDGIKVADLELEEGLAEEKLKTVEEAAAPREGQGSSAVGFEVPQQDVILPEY

## COc1ccc(/C=C2\SC(=S)NC2=O)cc1C#C[Si](C)(C)C [FINDY]
EPHA2
  inhibition at 10 µM: 16.3%
MSK2
  inhibition at 10 µM: 20.8%
p38β
  inhibition at 10 µM: 11.2%
BRSK1
  inhibition at 10 µM: 24.3%
BMX
  inhibition at 10 µM: 10.5%
CaMK4
  inhibition at 10 µM: 2.4%
CDK7/CycH/MAT1
  inhibition at 10 µM: 15.2%
PAK1
  inhibition at 10 µM: -0.2%
IKKβ
  inhibition at 10 µM: -3.5%
TYK2
  inhibition at 10 µM: -5.4%
LATS2
  inhibition at 10 µM: 1.2%
CK1γ3
  inhibition at 10 µM: 15.9%
PIK3CA/PIK3R1
  inhibition at 10 µM: 12.8%
PKCβ1
  inhibition at 10 µM: 3.5%
PKD3
  inhibition at 10 µM: -13.4%
SPHK2
  inhibition at 10 µM: 4.9%
CRIK
  inhibition at 10 µM: 1.9%
CSK
  inhibition at 10 µM: 6.7%
CaMK1α
  inhibition at 10 µM: -4.1%
ZAP70
  inhibition at 10 µM: 12.9%
NEK9
  inhibition at 10 µM: -3.3%
PKCη
  inhibition at 10 µM: -12.7%
SYK
  inhibition at 10 µM: 72.8%
Erk2
  inhibition at 10 µM: 36.4%
PAK3
  inhibition at 10 µM: -14.7%
MAPKAPK3
  inhibition at 10 µM: 29.2%
FER
  inhibition at 10 µM: 14.3%
TXK
  inhibition at 10 µM: 23.7%
TEC
  inhibition at 10 µM: 32%
RET
  inhibition at 10 µM: 12.6%
PDHK2
  inhibition at 10 µM: 14.1%
PIM3
  inhibition at 10 µM: 83.1%
SRPK2
  inhibition at 10 µM: -5%
ROS
  inhibition at 10 µM: 0.3%
EPHB2
  inhibition at 10 µM: 10.1%
MAP3K1_Cascade
  inhibition at 10 µM: 44.4%
PLK2
  inhibition at 10 µM: 11.1%
ABL
  inhibition at 10 µM: 13%
TAOK2
  inhibition at 10 µM: -1.2%
PGK
  inhibition at 10 µM: 2.6%
SIK
  inhibition at 10 µM: 15%
MARK1
  inhibition at 10 µM: 46.7%
FMS
  inhibition at 10 µM: 6.8%
CHK1
  inhibition at 10 µM: -119%
